Experimental data: ChEMBL document CHEMBL2384920, “Ester prodrugs of acyclic nucleoside thiophosphonates compared to phosphonates: synthesis, antiviral activity and decomposition study” (Eur J Med Chem, 2013)
Activity calls are given as the source filed them. No cut-off for these calls is given here.

What was measured:
[1] = test system: Hepatitis B virus; experiment: Antiviral activity against wild type HBV transfected in human HuH7 cells assessed as reduction of viral DNA level after 7 days by qPCR analysis; format: functional, organism-based; details: Huh-7, 168 h
[2] = test system: Human alphaherpesvirus 2; experiment: Antiviral activity against Human simplex virus 2 G infected in human HEL cells assessed as reduction of virus-induced cytopathicity measured at day 3 by microscopic analysis; format: functional, organism-based; details: Human alphaherpesvirus 2, strain G, 72 h
[3] = Cytotoxicity against human HuH7 cells assessed as reduction of cell density; format: cell-based, Huh-7
[4] = test system: Human alphaherpesvirus 1; experiment: Antiviral activity against thymidine kinase-deficient Human simplex virus 1 KOS infected in human HEL cells assessed as reduction of virus-induced cytopathicity measured at day 3 by microscopic analysis; format: functional, organism-based; details: Human alphaherpesvirus 1, KOS, 72 h
[5] = test system: Human immunodeficiency virus 2; experiment: Antiviral activity against wild type HIV-2 ROD infected in human CEM cells assessed as inhibition of syncytia formation after 4 days by microscopic analysis; format: functional, organism-based; details: Human immunodeficiency virus 2, ISOLATE ROD, CCRF-CEM, 96 h
[6] = Cytotoxicity against mock-infected human CEM cells assessed as growth inhibition; format: cell-based, CCRF-CEM
[7] = Prodrug conversion assessed as snake venome phosphodiesterase-mediated thiophosphonate monoester formation at 5 mM; format: ADME; details: crotalus adamanteus, 5000 µM
[8] = test system: Human immunodeficiency virus 1; experiment: Antiviral activity against wild type HIV-1 3B infected in human CEM cells assessed as inhibition of syncytia formation after 4 days by microscopic analysis; format: functional, organism-based; details: Human immunodeficiency virus 1, 3B, CCRF-CEM, 96 h
[9] = test system: Vaccinia virus; experiment: Antiviral activity against Vaccinia virus infected in human HEL cells assessed as reduction of virus-induced cytopathicity measured at day 3 by microscopic analysis; format: functional, organism-based; details: Orthopoxvirus vaccinia, 72 h
[10] = Cytotoxicity against human HEL cells assessed as effect on cell morphology; format: cell-based
[11] = test system: Human alphaherpesvirus 1; experiment: Antiviral activity against Human simplex virus 1 KOS infected in human HEL cells assessed as reduction of virus-induced cytopathicity measured at day 3 by microscopic analysis; format: functional, organism-based; details: Human alphaherpesvirus 1, KOS, 72 h
[12] = Prodrug conversion assessed as snake venome phosphodiesterase-mediated PMPA formation at 5 mM; format: ADME; details: crotalus adamanteus, 5000 µM
[13] = Half life of the compound in presence of carboxyesterase; format: physicochemical
[14] = Prodrug conversion assessed as snake venome phosphodiesterase-mediated (R)-9-[2-(Thiophosphonomethoxy)propyl]adenine disodium salt formation at 5 mM; format: ADME; details: crotalus adamanteus, 5000 µM
[15] = Prodrug conversion assessed as snake venome phosphodiesterase-mediated PMEA formation at 5 mM; format: ADME; details: crotalus adamanteus, 5000 µM
[16] = test system: Vaccinia virus; experiment: Antiviral activity against Vaccinia virus infected in human HEL cells assessed as reduction of virus-induced cytopathicity at 200 uM measured at day 3 by microscopic analysis; format: functional, organism-based; details: Orthopoxvirus vaccinia
[17] = Stability of the compound in RPMI-1640 assessed as half life of first step of hydrolysis; format: physicochemical
[18] = Prodrug conversion assessed as snake venome phosphodiesterase-mediated phosphonate monoester formation at 5 mM; format: ADME; details: crotalus adamanteus, 5000 µM
[19] = Stability of the compound in DMEM assessed as half life of first step of hydrolysis; format: physicochemical

## CC(C)(C)C(=O)OCOP(=S)(COCCn1cnc2c(N)ncnc21)OCOC(=O)C(C)(C)C
[1]
  EC50: 1.45 µM
[2]
  EC50: 3.9 µM
[3]
  CC50: > 25 µM
[4]
  EC50: 3.9 µM
[5]
  EC50: ≥ 0.2 µM
[6]
  CC50: 2 µM
[7]
  Drug metabolism: Active
[8]
  EC50: ≥ 0.2 µM
[9]
  EC50: 29 µM
[10]
  MCC: > 50 µM
[11]
  EC50: 3.9 µM

## CC(C)OC(=O)OCOP(=S)(CO[C@H](C)Cn1cnc2c(N)ncnc21)OCOC(=O)OC(C)C
[1]
  EC50: 1.14 µM
[2]
  EC50: > 50 µM
[3]
  CC50: > 25 µM
[4]
  EC50: > 50 µM
[5]
  EC50: 0.13 µM
[6]
  CC50: > 25 µM
[7]
  Drug metabolism: Active
[8]
  EC50: 0.092 µM
[9]
  EC50: > 50 µM
[10]
  MCC: > 50 µM
[11]
  EC50: > 50 µM

## CC(C)OC(=O)OCOP(=O)([O-])CO[C@H](C)Cn1cnc2c(N)ncnc21.[Na+]
[12]
  Drug metabolism: Active
[13]
  half-life: > 7 h

## CC(C)OC(=O)OCOP([O-])(=S)CO[C@H](C)Cn1cnc2c(N)ncnc21.[Na+] (some centres undefined)
[14]
  Drug metabolism: Active

## CC(C)(C)C(=O)OCOP(=O)([O-])COCCn1cnc2c(N)ncnc21.[Na+]
[15]
  Drug metabolism: Active

## Nc1ncnc2c1ncn2CCOCP(=O)(O)O
[16]
  Activity: inactive

## Nc1ncnc2c1ncn2CCOCP(=O)(O)S (centres undefined)
[16]
  Activity: Active

## Nc1nc2c(ncn2COCCO)c(=O)[nH]1 [ACYCLOVIR]
[4]
  EC50: 29 µM
[9]
  EC50: > 250 µM
[10]
  MCC: > 250 µM

## CC(C)(C)C(=O)OCOP(=O)(COCCn1cnc2c(N)ncnc21)OCOC(=O)C(C)(C)C [ADEFOVIR DIPIVOXIL]
[1]
  EC50: 0.83 µM
[2]
  EC50: 0.2 µM
[3]
  CC50: > 25 µM
[4]
  EC50: 0.2 µM
[17]
  half-life: 1 h
[5]
  EC50: 0.062 µM
[6]
  CC50: 1.6 µM
[18]
  Drug metabolism: Active
[13]
  half-life: > 7 h
[8]
  EC50: 0.045 µM
[19]
  half-life: 1 h
[9]
  EC50: 4 µM
[10]
  MCC: > 50 µM
[11]
  EC50: 0.2 µM

## Nc1ccn(C[C@@H](CO)OCP(=O)(O)O)c(=O)n1 [CIDOFOVIR]
[10]
  MCC: > 250 µM

## CC(C)OC(=O)OCOP(=O)(CO[C@H](C)Cn1cnc2c(N)ncnc21)OCOC(=O)OC(C)C [TENOFOVIR DISOPROXIL]
[1]
  EC50: 0.88 µM
[2]
  EC50: 5.8 µM
[3]
  CC50: > 25 µM
[4]
  EC50: 9.6 µM
[17]
  half-life: 1 h
[5]
  EC50: 0.013 µM
[6]
  CC50: > 25 µM
[18]
  Drug metabolism: Active
[8]
  EC50: 0.016 µM
[19]
  half-life: 1 h
[9]
  EC50: > 50 µM
[10]
  MCC: > 50 µM
[11]
  EC50: 5.8 µM
